Measured values published in publication PMC4513211, “Inhibition of voltage-gated sodium channels by sumatriptan bioisosteres” (Frontiers in Pharmacology, 2015).

Key:
hNav1.4 [1] = target: T1, hNav1.4 (Homo sapiens, UniProt P35499); test: whole-cell patch clamp, peak INa; format: cell-based; conditions: read-out: 0.1 Hz / IC50
T1 construct: gene SCN4A
Description: (§1) whole-cell patch clamp, peak INa on hNav1.4

hNav1.4 [2] = target: T2, hNav1.4 (Homo sapiens, UniProt P35499, F1586C); test: whole-cell patch clamp, peak INa; format: cell-based; conditions: read-out: 0.1 Hz / IC50
T2 construct: gene SCN4A
Description: as §1

T1 sequence (P35499 whole entry): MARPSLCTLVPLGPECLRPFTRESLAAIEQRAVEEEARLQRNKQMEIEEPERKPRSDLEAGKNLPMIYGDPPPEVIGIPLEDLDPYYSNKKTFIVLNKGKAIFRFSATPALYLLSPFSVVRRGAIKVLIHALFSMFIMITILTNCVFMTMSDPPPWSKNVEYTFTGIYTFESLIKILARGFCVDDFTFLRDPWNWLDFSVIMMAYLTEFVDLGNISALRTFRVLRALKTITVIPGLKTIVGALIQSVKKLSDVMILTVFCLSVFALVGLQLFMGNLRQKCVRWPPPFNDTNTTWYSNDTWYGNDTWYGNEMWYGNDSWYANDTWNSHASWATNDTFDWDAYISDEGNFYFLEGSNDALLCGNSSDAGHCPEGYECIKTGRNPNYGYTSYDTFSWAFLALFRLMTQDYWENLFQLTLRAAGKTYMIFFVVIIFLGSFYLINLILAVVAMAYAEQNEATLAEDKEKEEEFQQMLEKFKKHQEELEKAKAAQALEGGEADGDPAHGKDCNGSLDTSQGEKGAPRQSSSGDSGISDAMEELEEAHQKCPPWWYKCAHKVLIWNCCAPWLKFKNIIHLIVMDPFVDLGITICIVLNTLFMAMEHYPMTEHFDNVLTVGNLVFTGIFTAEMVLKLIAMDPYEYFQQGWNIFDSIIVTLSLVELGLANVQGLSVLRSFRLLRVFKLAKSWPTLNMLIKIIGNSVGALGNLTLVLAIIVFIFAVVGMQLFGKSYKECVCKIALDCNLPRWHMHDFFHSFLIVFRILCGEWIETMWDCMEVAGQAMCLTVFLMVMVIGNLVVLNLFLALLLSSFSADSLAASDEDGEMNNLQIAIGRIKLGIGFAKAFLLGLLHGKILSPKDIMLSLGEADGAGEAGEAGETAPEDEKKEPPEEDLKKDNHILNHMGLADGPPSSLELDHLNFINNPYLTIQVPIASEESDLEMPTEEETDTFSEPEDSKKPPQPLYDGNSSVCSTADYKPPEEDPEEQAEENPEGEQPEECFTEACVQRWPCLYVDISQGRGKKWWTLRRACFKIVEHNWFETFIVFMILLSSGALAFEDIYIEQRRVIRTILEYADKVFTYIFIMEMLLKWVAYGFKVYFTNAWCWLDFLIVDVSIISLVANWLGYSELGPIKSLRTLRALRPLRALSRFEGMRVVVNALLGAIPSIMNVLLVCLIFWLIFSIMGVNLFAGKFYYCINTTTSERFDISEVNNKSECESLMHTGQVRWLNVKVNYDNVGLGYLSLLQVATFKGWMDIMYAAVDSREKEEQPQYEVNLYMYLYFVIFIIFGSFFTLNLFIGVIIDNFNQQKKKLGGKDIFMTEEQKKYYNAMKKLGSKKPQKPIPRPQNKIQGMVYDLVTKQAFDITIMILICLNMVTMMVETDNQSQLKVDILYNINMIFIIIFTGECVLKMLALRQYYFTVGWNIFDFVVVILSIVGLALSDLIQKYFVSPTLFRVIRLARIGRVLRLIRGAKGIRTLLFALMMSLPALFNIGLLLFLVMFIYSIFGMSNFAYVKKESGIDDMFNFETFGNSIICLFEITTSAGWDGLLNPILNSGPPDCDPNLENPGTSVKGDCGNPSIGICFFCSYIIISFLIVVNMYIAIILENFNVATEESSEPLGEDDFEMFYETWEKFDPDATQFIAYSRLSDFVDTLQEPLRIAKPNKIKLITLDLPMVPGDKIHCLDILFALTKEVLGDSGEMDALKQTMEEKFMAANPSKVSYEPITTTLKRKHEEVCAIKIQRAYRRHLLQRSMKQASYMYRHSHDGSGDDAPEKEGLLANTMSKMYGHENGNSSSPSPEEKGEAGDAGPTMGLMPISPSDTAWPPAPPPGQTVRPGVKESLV
T2 sequence (P35499 whole entry F1586C): as the sequence (P35499 whole entry) above, with F1586C counted along it

IC50 (hNav1.4 [1]): 51 ± 2 µM
IC50 (hNav1.4 [2]): 215 ± 5 µM
SMILES: CNC[C@H](C)Oc1cccc2ccccc12 [(S)-22b]
